Reference: publication PMC12091851, “Replacing a Cereblon Ligand by a DDB1 and CUL4 Associated Factor 11 (DCAF11) Recruiter Converts a Selective Histone Deacetylase 6 PROTAC into a Pan‐Degrader” (Chemmedchem, 2025)

Biological target: HDAC1 (Homo sapiens, UniProt Q13547)
Experiment: Simple Western immunoassay, HDAC1 levels in U-87MG cell lysates
Format: cell-based
Design: endogenous in cells; host or cells: MM.1S
Conditions: 10 μM, 24 h
Description: Figure S5. Analysis of HDAC1 and 6 degradation in U-87MG cells. Simple western immunoassay analysis of U-87MG cell lysates. The cells were treated with the indicated compound (10 µM) or vehicle (DMSO) for 24 h. Top: Quantification of HDAC levels, presented as mean ± standard deviation of n = 2 biological replicates; Significance compared to vehicle: ns = p≥0.05 and *** = p≤0.001. Bottom:
Representative images of n = 2 biological replicates.
(1 picture or pasted object on this page, not shown here)
2. Biological Experiments
No unexpected or unusually high safety hazards were encountered.
The human multiple myeloma cell line MM.1S (CRL-2974) was obtained from American Type Culture Collection (ATCC, Manassas, VA, USA). […]
Louis, MO, USA) according to manufacturer´s instructions. Protein content was determined by Pierce™ BCA Protein Assay Kit (Catalog# 23225, Thermo Fisher Scientific Inc.) according to manufacturer´s guidelines. […]
Fluorescence Separation 8x25 Capillary Cartridges (Catalog# SM-FL004-1, Protein Simple, Bio-Techne, Minneapolis, MN, USA) were used for separation and the Anti-Mouse Detection Module (Catalog# DM-002, Protein Simple) was used for detection with addition of 20x Anti-Rabbit HRP […]
Conjugate (Catalog# 043-426, Protein Simple) according to manufacturer´s instructions. […] Evaluation and quantification was performed with the compass software (6.2.0, Protein Simple). […]

Sequence of HDAC1 (Q13547 whole entry): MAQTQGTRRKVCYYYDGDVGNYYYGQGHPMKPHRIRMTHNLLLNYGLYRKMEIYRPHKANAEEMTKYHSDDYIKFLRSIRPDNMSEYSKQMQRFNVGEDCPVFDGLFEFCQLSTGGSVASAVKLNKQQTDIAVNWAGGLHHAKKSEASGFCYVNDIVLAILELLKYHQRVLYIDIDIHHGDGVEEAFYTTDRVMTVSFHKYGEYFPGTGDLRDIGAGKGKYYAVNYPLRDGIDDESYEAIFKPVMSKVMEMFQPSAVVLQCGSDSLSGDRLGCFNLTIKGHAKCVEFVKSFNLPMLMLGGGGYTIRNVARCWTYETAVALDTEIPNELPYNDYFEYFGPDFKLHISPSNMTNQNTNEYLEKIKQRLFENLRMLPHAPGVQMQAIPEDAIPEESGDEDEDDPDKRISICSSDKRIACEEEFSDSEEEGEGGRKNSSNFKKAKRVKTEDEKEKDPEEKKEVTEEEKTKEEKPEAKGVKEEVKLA

HDAC1 degradation in U-87MG cells | SMILES
significant HDAC1 and 6 degradation | O=C(CCCCCCNC(=O)c1ccc(NC(=O)CCCCCCCCCCCN(C(=O)CCl)C(C(=O)NCc2ccccc2)c2ccc(Cl)c(Cl)c2)cc1)NO (centres unmarked) [Compound 1j]
significant degradation for HDAC1 | O=C(CCCCCCNC(=O)c1ccc(N(C(=O)CCl)C(C(=O)NCc2ccccc2)c2ccc(Cl)c(Cl)c2)cc1)NO (centres unmarked) [Compound 2]
